Measurements reported in BindingDB's records for doi:10.7270/Q2D798VP (Broad Institute, 2009).

What follows are compounds tested against T1, Zinc finger protein mex-5 (Caenorhabditis elegans, UniProt Q9XUB2) (assay: MEX-5/TCR-2 RNA interaction inhibitors, dose response, biochemical, C. elegans, fluorescence polarization (AID 1960)).
T1 sequence (Q9XUB2 whole entry): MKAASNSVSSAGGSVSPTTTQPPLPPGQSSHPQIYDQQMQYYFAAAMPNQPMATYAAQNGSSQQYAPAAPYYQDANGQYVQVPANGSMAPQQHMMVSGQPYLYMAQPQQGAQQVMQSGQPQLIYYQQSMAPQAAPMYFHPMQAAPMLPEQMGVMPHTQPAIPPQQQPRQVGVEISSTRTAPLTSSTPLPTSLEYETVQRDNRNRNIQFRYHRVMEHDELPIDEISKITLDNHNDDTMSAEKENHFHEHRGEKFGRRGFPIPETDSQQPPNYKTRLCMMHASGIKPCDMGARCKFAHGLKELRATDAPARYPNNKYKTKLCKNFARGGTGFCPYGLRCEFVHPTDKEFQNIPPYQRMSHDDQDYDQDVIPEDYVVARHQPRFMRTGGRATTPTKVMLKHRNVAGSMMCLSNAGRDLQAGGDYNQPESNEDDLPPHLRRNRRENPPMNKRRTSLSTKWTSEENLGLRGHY

Q: For `CN(C)c1ccc(NC=C2C(=O)NC(=O)N(CCC3=CCCCC3)C2=O)cc1` [(5Z)-1-[2-(cyclohexen-1-yl)ethyl]-5-[[[4-(dimethylamino)phenyl]amino]methylidene]-1,3-diazinane-2,4,6-trione], which EC50 is on record?
A: > 300 µM

Q: `O=C(Cc1nc2cc(Cl)ccc2oc1=O)c1cccs1` [(3Z)-6-chloranyl-3-(2-oxidanylidene-2-thiophen-2-yl-ethylidene)-4H-1,4-benzoxazin-2-one] was tested. Which EC50 did it give?
A: 153 µM

Q: For `O=C1NC(=O)N(Cc2ccccc2)C(=O)C1=CNc1ccc(CN2CCOCC2)cc1` [(5E)-1-benzyl-5-[[4-(morpholin-4-ylmethyl)anilino]methylidene]-1,3-diazinane-2,4,6-trione], which EC50 is on record?
A: > 300 µM

Q: With `C(=NNC(=Nc1ccccc1)c1ccccn1)c1ccccn1` [SMR000174637] as the compound, how does the EC50 read?
A: 94.4 µM

Q: For `CC(N=Nc1ccc([N+](=O)[O-])cc1[N+](=O)[O-])c1cc2c(ccc3ccccc32)oc1=O` (configuration not stated) [2-[1-[(2,4-dinitrophenyl)hydrazinylidene]ethyl]-3-benzo[f][1]benzopyranone], which EC50 is on record?
A: > 300 µM

Q: Which EC50 does the source give for `Cc1ccc2oc(=O)c(CC(=O)CC(C)C)nc2c1` [(3Z)-3-(2-keto-4-methyl-pentylidene)-6-methyl-4H-1,4-benzoxazin-2-one] here?
A: > 300 µM

Q: For `CCN(CC)c1ccc(NC=C2C(=O)NC(=O)N(Cc3ccccc3)C2=O)cc1` [(5E)-1-benzyl-5-[[4-(diethylamino)anilino]methylene]barbituric acid], which EC50 is on record?
A: > 300 µM

Q: `CSc1nncc(C(C)N=Nc2ccccc2)n1` (configuration not stated) [1-[3-(methylsulfanyl)-1,2,4-triazin-5-yl]ethanone phenylhydrazone] was tested. Which EC50 did it give?
A: > 300 µM

Q: `Cc1cccc(NNC2=c3cc(Br)ccc3=NC2=O)c1` [5-bromo-3-[2-(3-methylphenyl)hydrazinyl]indol-2-one] was tested. Which EC50 did it give?
A: 26.9 µM

Q: `COc1ccc(OC)c(N2C(=O)NC(=O)C(=Cc3c[nH]c4ccccc34)C2=O)c1` [(5E)-1-(2,5-dimethoxyphenyl)-5-(1H-indol-3-ylmethylene)pyrimidine-2,4,6(1H,3H,5H)-trione] was tested. Which EC50 did it give?
A: > 300 µM

Q: Which EC50 does the source give for `Cc1ccc(NC=C2SC(=O)c3ccccc32)c(C)c1` [(3Z)-3-[(2,4-dimethylanilino)methylene]isobenzothiophen-1-one] here?
A: > 300 µM

Q: For `O=C(N/N=C/C1C=C(Cl)C=C([N+](=O)[O-])C1=O)c1ccc2c(c1)OCO2` (configuration not stated) [N'-[(E)-(3-chloranyl-5-nitro-6-oxidanylidene-cyclohexa-2,4-dien-1-ylidene)methyl]-1,3-benzodioxole-5-carbohydrazide], which EC50 is on record?
A: 241 µM

Q: With `O=C1C=C(NNC(=O)c2sc3ccccc3c2Cl)CCC1` [3-chloranyl-N-[(3-oxidanylidenecyclohexylidene)amino]-1-benzothiophene-2-carboxamide] as the compound, how does the EC50 read?
A: 20.5 µM

Q: With `CCN(CC)c1ccc(C=NC(C#N)C(=N)C#N)cc1` (configuration not stated) [SMR000023871] as the compound, how does the EC50 read?
A: 114 µM

Q: How did the EC50 turn out when `O=c1c2ccccc2nc(N=NCc2ccc(O)cc2)n1O` [3-Hydroxy-2-{N'-[1-(4-hydroxy-phenyl)-meth-(E)-ylidene]-hydrazino}-3H-quinazolin-4-one] was run?
A: > 300 µM

Q: How did the EC50 turn out when `COc1cc(C2C3=C(CCCC3=O)OC(=N)C2C#N)ccc1OC(=O)N1CCOCC1` (configuration not stated) [4-(2-amino-3-cyano-5-oxo-5,6,7,8-tetrahydro-4H-chromen-4-yl)-2-methoxyphenyl morpholine-4-carboxylate] was run?
A: > 300 µM

Q: How did the EC50 turn out when `N#CC1C(=N)OC2=C(C(=O)CCC2)C1c1ccc(OC(=O)N2CCOCC2)cc1` (configuration not stated) [4-(2-amino-3-cyano-5-oxo-5,6,7,8-tetrahydro-4H-chromen-4-yl)phenyl morpholine-4-carboxylate] was run?
A: > 300 µM

Q: How did the EC50 turn out when `N#CC1C(=N)OC2=C(C(=O)CCC2)C1c1cc2c(cc1Cl)OCO2` (configuration not stated) [MLS001183950] was run?
A: > 300 µM

Q: With `Cc1cc(=O)[nH]c(N=NCc2ccc(O)c(O)c2)n1` [MLS001194906] as the compound, how does the EC50 read?
A: 125 µM

Q: `O=C(c1ccccc1)c1[nH]n(-c2ccccc2)c2c(O)n(-c3ccccc3Cl)c(=O)c1-2` [SMR000212371] was tested. Which EC50 did it give?
A: > 300 µM

Q: With `CCOc1cc(C=C2C(=N)N3N=C(S(C)(=O)=O)SC3=NC2=O)ccc1OCCOc1cccc(OC)c1` [(6E)-6-[[3-ethoxy-4-[2-(3-methoxyphenoxy)ethoxy]phenyl]methylidene]-5-imino-2-methylsulfonyl-[1,3,4]thiadiazolo[3,2-a]pyrimidin-7-one] as the compound, how does the EC50 read?
A: 221 µM

Q: With `c1ccc(C2=NNC(c3ccccn3)N=N2)nc1` (configuration not stated) [SMR000549436] as the compound, how does the EC50 read?
A: 22.4 µM

Q: Which EC50 does the source give for `CSc1nnc(N2C(=O)C(=O)C(C(=O)c3ccco3)C2c2ccccc2)s1` (configuration not stated) [3-(furan-2-carbonyl)-4-hydroxy-1-(5-methylsulfanyl-1,3,4-thiadiazol-2-yl)-2-phenyl-2H-pyrrol-5-one] here?
A: 76.6 µM

Q: Which EC50 does the source give for `O=C(O)COc1ccc(C=Cc2nnc(-c3ccccc3O)[nH]2)cc1` [2-[4-[(E)-2-[(5Z)-5-(6-oxo-1-cyclohexa-2,4-dienylidene)-1,2-dihydro-1,2,4-triazol-3-yl]ethenyl]phenoxy]acetic acid] here?
A: 0.945 µM

Q: For `CCC(=CC=C[C@@H]1C=C[C@@H]2CCC[C@H]2[C@@H]1C(=O)c1ccc[nH]1)[C@@H]1O[C@@H]([C@@H](C)C(=O)O)CC[C@@H]1C` [2-(6-{1-ethyl-4-[4-(1H-pyrrol-2-ylcarbonyl)-2,3,3a,4,5,7a-hexahydro-1H-inden-5-yl]-1,3-butadienyl}-5-methyltetrahydro-2H-pyran-2-yl)propanoate], which EC50 is on record?
A: 1.16 µM

Q: With `COc1cccc(C2C3=C(CCCC3=O)OC(=N)C2C#N)c1OC(=O)c1ccco1` (configuration not stated) [2-(2-amino-3-cyano-5-oxo-5,6,7,8-tetrahydro-4H-chromen-4-yl)-6-methoxyphenyl 2-furoate] as the compound, how does the EC50 read?
A: > 300 µM

Q: For `CN=c1scc(C)n1N=Cc1ccc(O)c(O)c1O` [(4E)-2,3-dihydroxy-4-[[(4-methyl-2-methylimino-1,3-thiazol-3-yl)amino]methylidene]cyclohexa-2,5-dien-1-one], which EC50 is on record?
A: 67.1 µM

Q: For `O=C(Cc1nc2ccccc2n(-c2ccccc2)c1=O)c1ccccc1` [(3Z)-3-phenacylidene-1-phenyl-4H-quinoxalin-2-one], which EC50 is on record?
A: 6.1 µM

Q: With `COc1ccc(C2C(C(=O)c3ccco3)C(=O)C(=O)N2c2nnc(C)s2)cc1` (configuration not stated) [3-(furan-2-carbonyl)-4-hydroxy-2-(4-methoxyphenyl)-1-(5-methyl-1,3,4-thiadiazol-2-yl)-2H-pyrrol-5-one] as the compound, how does the EC50 read?
A: 216 µM

Q: `Cc1ccc(N=CCC(=O)c2sc(-c3ccccc3)nc2C)cc1` [(E)-1-(4-methyl-2-phenyl-1,3-thiazol-5-yl)-3-(4-toluidino)-2-propen-1-one] was tested. Which EC50 did it give?
A: > 300 µM

Q: Which EC50 does the source give for `COCCNC(=O)Cn1cc(C=C2C(=O)NC(=O)N(c3ccccc3F)C2=O)c2ccccc21` [2-(3-{(E)-[1-(2-fluorophenyl)-2,4,6-trioxotetrahydropyrimidin-5(2H)-ylidene]methyl}-1H-indol-1-yl)-N-(2-methoxyethyl)acetamide] here?
A: 8.13 µM

Q: `O=C(c1ccccc1)[C@@H]1c2c(c(O)n(-c3ccc(F)cc3)c2O)C2CCCN21` (some centres not stated) [MLS000769629] was tested. Which EC50 did it give?
A: 40.9 µM

Q: `Cc1c(C(=O)O)cccc1-n1c(C)cc(CN=Nc2ccc([N+](=O)[O-])cn2)c1C` was tested. Which EC50 did it give?
A: 50.2 µM

Q: For `COc1cc(CN=Nc2ccc([N+](=O)[O-])cc2)ccc1OCC(=O)Nc1ccc(C)c(C)c1` [MLS000537060], which EC50 is on record?
A: 234 µM

Q: Which EC50 does the source give for `Oc1csc(N=NCc2cccs2)n1` [2-[2-(thiophen-2-ylmethylidene)hydrazinyl]-1,3-thiazol-4-one] here?
A: > 300 µM

Q: How did the EC50 turn out when `COC1=CC([N+](=O)[O-])=CC(/C=N/NC(=O)CC#N)C1=O` (configuration not stated) was run?
A: > 300 µM

Q: Which EC50 does the source give for `COc1ccc(N=C(C)c2sc3ccccc3c2O)cc1` [(2Z)-2-[1-(4-methoxyanilino)ethylidene]-1-benzothiophen-3-one] here?
A: 17.7 µM
